Data reported in patent US20060270740A1, “Prostaglandin derivatives” (TAISHO PHARMACEUTICAL CO., LTD. and Fumie SATO, priority 2003, published 2006).
Where two headings read alike, the source gives them in different places.

Assays:
PGD2 receptor = target: T1, PGD2 receptor (Bos taurus, UniProt A5D7K8); assay: Competitive inhibition activity test to PGD2 receptor, cAMP production in EBTr[NBL-4] cells; type: cell-based, bovine; settings: 37 degree C., 15 minutes
T1 construct: EBTr[NBL-4] cells derived from embryonic bovine trachea; endogenous in cells; host or cells: EBTr[NBL-4] cells (embryonic bovine trachea)
T1 sequence (A5D7K8 1-361): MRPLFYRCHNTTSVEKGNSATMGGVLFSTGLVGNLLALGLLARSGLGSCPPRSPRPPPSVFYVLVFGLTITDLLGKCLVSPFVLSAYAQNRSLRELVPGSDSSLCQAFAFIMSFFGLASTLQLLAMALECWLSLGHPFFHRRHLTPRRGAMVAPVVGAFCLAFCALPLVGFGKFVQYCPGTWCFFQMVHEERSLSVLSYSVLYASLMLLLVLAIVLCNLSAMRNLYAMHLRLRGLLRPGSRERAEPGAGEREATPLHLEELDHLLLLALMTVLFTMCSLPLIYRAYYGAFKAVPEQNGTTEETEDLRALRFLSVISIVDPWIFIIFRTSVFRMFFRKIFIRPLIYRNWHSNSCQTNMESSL
Protocol: EBTr[NBL-4] cells derived from embryonic bovine trachea were seeded on a micro-plate with 96 wells, at 8000 cells/well, and used for the experiment after culturing for 2 days in the presence of MEM culture medium (containing 10% calf cerum). The experiment was conducted in a MEM culture medium containing 500 μM IBMX and 10% calf serum. 100 μl of culture medium containing PGD2 and the test compound was added to initiate the reaction, and after reaction at 37 degree C. for 15 minutes, the culture medium was removed and ice-chilled PBS was added to terminate the reaction. Further, after removal of PBS, 200 μl of cytolytic agent (Lysis reagent 1) in cAMP enzymeImmunoassay system (Amersham) was added and cytolysis was brought about by shaking at room temperature for 10 minutes. The quantity of cAMP in the cytolytic agent was determined in accordance with the method described in the cAMP enzymeImmunoassay system. The inhibition activity of the test compound was calculated with the pA2 value as an indicator using the IC50 value when cAMP production quantity in the presence of 100 nM, 1 μM PGD2 was taken as 100%.

[1] = target: T2, PGD2 receptor (DP receptor) (Homo sapiens, UniProt Q13258); assay: PGD2 receptor (DP receptor) binding test, [3H]PGD2, human platelet membrane fraction; settings: 5 nM [3H]PGD2, 4 degree C., 90 minutes, read-out: Inhibition constant Ki
T2 construct: twice centrifuged at 105,000×g for 20 minutes at 4 degree C. to obtain platelet membrane fraction as precipitate; from tissue; host or cells: human platelet membrane fraction from blood of a healthy adult
T2 sequence (Q13258 1-359): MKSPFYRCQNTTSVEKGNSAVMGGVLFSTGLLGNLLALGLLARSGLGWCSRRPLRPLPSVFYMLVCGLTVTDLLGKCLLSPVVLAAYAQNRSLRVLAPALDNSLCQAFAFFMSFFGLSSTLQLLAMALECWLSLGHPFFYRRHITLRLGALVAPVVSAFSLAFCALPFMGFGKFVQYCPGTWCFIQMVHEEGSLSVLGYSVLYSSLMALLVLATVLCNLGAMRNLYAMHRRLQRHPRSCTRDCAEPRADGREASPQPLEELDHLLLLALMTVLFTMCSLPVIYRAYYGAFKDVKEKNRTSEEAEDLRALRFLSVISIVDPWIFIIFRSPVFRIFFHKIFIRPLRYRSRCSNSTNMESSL
Protocol: The test was conducted in accordance with the method of TsurI et al. (J. Med. Chem., 40, 3504-3507 (1997)).
(1) Preparation of Human Platelet Membrane Fraction
A sample of blood drawn from a healthy adult using a plastic syringe was placed in a plastic test tube containing 3.8% sodium citrate, and after gently mixing by overturning centrifuged at room temperature at 180×g for 20 minutes to obtain platelet-rich plasma (PRP) as supernatant. The PRP was further centrifuged at room temperature at 800×g for 20 minutes to obtain platelet as precipitate. […]
The human platelet membrane fraction (0.1 mg), 5 nM [3H]PGD2, and each compound was added to 200 μl of binding reaction solution (50 mM Tris/HCl (pH 7.4), 1 mM EDTA, 10 mM MgCl2), and reaction was conducted at 4 degree C. for 90 minutes. After reaction, the mixture was filtered under vacuum using a glass fiber filter paper, and after rinsing several times with cold physiological sodium chloride solution, residual radio activity on the filter paper was measured. The quantity of nonspecific binding in the present experiment was calculated as the quantity of radioactivity when a similar experiment was conducted in the presence of 10 μM PGD2, and the quantity of specific binding was given as the value of quantity of total binding minus quantity of nonspecific binding. […]

[2] = Competitive inhibition activity IC50, PGD2 (100 nM), PGD2 (100 nM) as printed, read-out: Competitive inhibition activity IC50, PGD1 (100 nM)
[3] = PGD2 (1 μM), read-out: Competitive inhibition activity IC50, PGD2 (1 μM)

IC50 (PGD2 receptor; [2])	IC50 (PGD2 receptor; [3])	Ki [1]	Compound
730 nM	1160 nM	0.8 nM	O=C(O)Cc1cccc(CC[C@@H]2[C@@H](C#C[C@@H](O)C3CCCCC3)[C@H](O)C[C@H]2Cl)c1 [Compound 38, 9-Deoxy-9β-chloro-3,4,5,16,17,18,19,20-octanol-2,6-inter-m-phenylene-15-cyclohexyl-13,14-didehydro-PGF1α]
3420 nM	5370 nM	2.3 nM	O=C(O)Cc1ccccc1CC[C@@H]1[C@@H](C#C[C@@H](O)C2CCCCC2)[C@H](O)C[C@H]1Cl [Compound 51, 9-Deoxy-9β-chloro-3,4,5, 16, 17, 18, 19,20-octanol-2,6-inter-o-phenylene-15-cyclohexyl-13,14-didehydro-PGF1α]
